In US6720346B2, “Thiazole benzamide derivatives and pharmaceutical compositions for inhibiting cell proliferation” (Agouron Pharmaceuticals, Inc., priority 2001, dated 2004):
Counter-ions that a name gives are not always drawn.

What was measured:
human CDK4/cyclin D3 = molecular target: T1, human CDK4/cyclin D3 (Homo sapiens, UniProt P11802); assay: Inhibition of CDK4/cyclin D retinoblastoma kinase activity (Ki; % inhibition); type: biochemical; conditions: for Ki: apparent Ki, CDK4/cyclin D3, Rb substrate
T1 construct: made in house; host or cells: insect cells co-infected with baculovirus vectors
How it was run: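 Insect-cell-expressed CDK4 with truncated cyclin D3 (1-264), 5 nM, phosphorylating His-tagged Rb fragment (386-928) with 25 μM [32/33P]ATP at pH 7.4, 30 °C, 20 min (60 min for tight binders). Filter capture, phosphorimager read; % inhibition at 30 nM compound, Ki from competitive or tight-binding fits.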

CDK2/cyclin A = molecular target: T2, CDK2/cyclin A (Homo sapiens, UniProt P24941); assay: Inhibition of CDK2/cyclin A retinoblastoma kinase activity (Ki; % inhibition); type: biochemical; conditions: for Ki: apparent Ki, CDK2/cyclin A, Rb substrate
T2 construct: made in house; host or cells: CDK2: insect cells (baculovirus); cyclin A: E. coli
How it was run: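 Radiometric filter assay of CDK2/proteolyzed cyclin A (baculovirus-expressed human CDK2, 10 or 19 nM) phosphorylating an Rb fragment with 25 μM [³²P/³³P]ATP in pH 7.4 HEPES, 2% DMSO, at 30 °C for 60 or 75 min under initial-rate conditions. Library compounds screened at 30 nM for % inhibition; apparent Ki from concentration series fit to competitive or tight-binding inhibition equations.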

HCT-116 cell line = assay: Inhibition of cell growth, MTT tetrazolium salt assay; type: cell-based; conditions: for IC50: Homo sapiens, HCT-116, 120 h, MTT, three to five days
How it was run: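 Growth inhibition was read as MTT-formazan absorbance at 540 nm, after 4 h with 0.2 mg/mL MTT. Before that, HCT-116 cells had been exposed 3–5 days at 37 °C to compounds in 0.5% (v/v) DMSO, added 4 h after plating. 50% and 90% inhibitory concentrations were taken from semi-log concentration–inhibition plots versus vehicle controls.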

[1] = HCT-116 cells, 0.25 μM compound

T1 sequence (P11802 whole entry): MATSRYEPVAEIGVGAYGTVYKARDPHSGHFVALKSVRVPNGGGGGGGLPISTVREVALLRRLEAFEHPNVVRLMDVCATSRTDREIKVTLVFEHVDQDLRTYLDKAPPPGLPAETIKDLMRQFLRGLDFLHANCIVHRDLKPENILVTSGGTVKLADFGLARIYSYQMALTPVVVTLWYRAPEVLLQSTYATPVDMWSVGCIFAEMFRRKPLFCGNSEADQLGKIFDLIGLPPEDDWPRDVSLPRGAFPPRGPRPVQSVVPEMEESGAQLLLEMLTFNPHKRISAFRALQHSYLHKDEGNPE
T1 sequence (P30281 1-264 partner limits assumed): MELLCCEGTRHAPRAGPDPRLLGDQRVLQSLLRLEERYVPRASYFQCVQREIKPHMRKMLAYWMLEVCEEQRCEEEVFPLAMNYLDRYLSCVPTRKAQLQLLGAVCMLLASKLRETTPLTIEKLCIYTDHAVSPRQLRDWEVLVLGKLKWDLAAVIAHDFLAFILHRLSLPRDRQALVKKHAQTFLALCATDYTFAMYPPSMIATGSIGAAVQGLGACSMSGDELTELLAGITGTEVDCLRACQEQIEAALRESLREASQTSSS

SMILES	CDK4 % Inhibition at 0.03 μM (human CDK4/cyclin D3; at 0.03 μM)	CDK2 % Inhibition at 0.03 μM (CDK2/cyclin A; at 0.03 μM)	CDK4 % Inhibition at 0.03 μM (human CDK4/cyclin D3; 0.03 μM compound)	CDK2 % Inhibition at 0.03 μM (CDK2/cyclin A; 0.03 μM compound)	HCT-116 % Inhibition at 0.25 μM (HCT-116 cell line; HCT-116, at 0.25 μM)	HCT-116 % Inhibition at 0.1 μM (HCT-116 cell line; HCT-116 cells, 0.1 μM compound)	HCT-116 % Inhibition at 0.25 μM (HCT-116 cell line; [1])	further results
CC(C)CNC(=O)c1ccc(Nc2nc(N)c(C(=O)c3c(F)cccc3F)s2)cc1 [Example G126]	7%	3%	–	–	53%	–	–	HCT-116 % Inhibition at 0.1 μM (HCT-116 cell line; HCT-116, at 0.1 μM): 0%
CCOC(=O)Cc1ccc(NC(=O)c2ccc(Nc3nc(N)c(C(=O)c4c(F)cccc4F)s3)cc2)cc1 [Example G130]	11%	1%	–	–	77%	–	–	HCT-116 % Inhibition at 0.1 μM (HCT-116 cell line; HCT-116, at 0.1 μM): 0%
CN(CCO)C(=O)c1ccc(Nc2nc(N)c(C(=O)c3c(F)cccc3F)s2)cc1 [Example G17]	7%	2%	–	–	45%	–	–	–
Nc1nc(Nc2ccc(C(=O)Nc3cccc(Cl)c3)cc2)sc1C(=O)c1c(F)cccc1F [Example G76]	7%	7%	–	–	61%	–	–	–
Cc1ccc(CNC(=O)c2ccc(Nc3nc(N)c(C(=O)c4c(F)cccc4F)s3)cc2)o1 [Example A6, 4-[4-Amino-5-(2,6-difluoro-benzoyl)-thiazol-2-ylamino]-N-(5-methyl-furan-2-ylmethyl)-benzamide]	–	–	–	–	–	–	–	Ki (human CDK4/cyclin D3): 15 nM; Ki (CDK2/cyclin A): 7.5 nM; IC50 (HCT-116 cell line): 220 nM
Nc1nc(Nc2ccc(C(=O)Nc3ccc4c(c3)S(=O)(=O)NC4=O)cc2)sc1C(=O)c1c(F)cccc1F [Example G101]	19%	11%	–	–	46%	–	–	HCT-116 % Inhibition at 0.1 μM (HCT-116 cell line; HCT-116, at 0.1 μM): 10%
CN(CC1OCCO1)C(=O)c1ccc(Nc2nc(N)c(C(=O)c3c(F)cccc3F)s2)cc1 [Example G42]	7%	10%	–	–	54%	–	–	–
CCOC(=O)CC(C)NC(=O)c1ccc(Nc2nc(N)c(C(=O)c3c(F)cccc3F)s2)cc1 (stereo not drawn) [Example G117]	13%	4%	–	–	55%	–	–	HCT-116 % Inhibition at 0.1 μM (HCT-116 cell line; HCT-116, at 0.1 μM): 6%
Nc1nc(Nc2ccc(C(=O)N3CCOCC3)cc2)sc1C(=O)c1c(F)cccc1F [Example G10]	−2%	−4%	–	–	51%	–	–	–
CC(C)c1ccccc1NC(=O)c1ccc(Nc2nc(N)c(C(=O)c3c(F)cccc3F)s2)cc1 [Example G51]	−1%	9%	–	–	89%	–	–	–
Nc1nc(Nc2ccc(C(=O)NCc3nccs3)cc2)sc1C(=O)c1c(F)cccc1F [Example A49, 4-[4-Amino-5-(2,6-difluoro-benzoyl)-thiazol-2-ylamino]-N-(thiazol-2-yl-methyl)-benzamide Hydrochloride]	–	–	–	–	–	–	–	Ki (human CDK4/cyclin D3): 11 nM; Ki (CDK2/cyclin A): 260 nM; IC50 (HCT-116 cell line): 320 nM
CCCN(CC1CC1)C(=O)c1ccc(Nc2nc(N)c(C(=O)c3c(F)cccc3F)s2)cc1 [Example G1]	−10%	−3%	–	–	56%	–	–	–
CC(=O)NC1CCN(C(=O)c2ccc(Nc3nc(N)c(C(=O)c4c(F)cccc4F)s3)cc2)C1 (stereo not drawn) [Example G73]	18%	19%	–	–	56%	–	–	–
Nc1nc(Nc2ccc(C(=O)Nc3ccc(Cl)c(Cl)c3)cc2)sc1C(=O)c1c(F)cccc1F [Example G84]	3%	9%	–	–	63%	–	–	–
CC(C)OCCNC(=O)c1ccc(Nc2nc(N)c(C(=O)c3c(F)cccc3F)s2)cc1 [Example A7, 4-[4-Amino-5-(2,6-difluoro-benzoyl)-thiazol-2-ylamino]-N-(2-isopropoxy-ethyl)-benzamide]	–	–	–	–	–	–	–	Ki (human CDK4/cyclin D3): 26 nM; Ki (CDK2/cyclin A): 61 nM; IC50 (HCT-116 cell line): 410 nM
COc1cc(NC(=O)c2ccc(Nc3nc(N)c(C(=O)c4c(F)cccc4F)s3)cc2)cc(OC)c1 [Example G86]	0%	10%	–	–	73%	–	–	HCT-116 % Inhibition at 0.1 μM (HCT-116 cell line; HCT-116, at 0.1 μM): 39%
COc1cc(Nc2nc(N)c(C(=O)c3c(F)cccc3F)s2)ccc1C(=O)NC(C)CN(C)C (stereo not drawn) [Example A60, 4-[4-Amino-5-(2,6-difluoro-benzoyl)-thiazol-2-ylamino]-N-(2RS-dimethylamino-1-methyl-ethyl)-2-methoxy-benzamide]	–	–	–	–	–	–	–	Ki (human CDK4/cyclin D3): 31 nM; Ki (CDK2/cyclin A): 91 nM; IC50 (HCT-116 cell line): 200 nM
COc1ccc(NC(=O)c2ccc(Nc3nc(N)c(C(=O)c4c(F)cccc4F)s3)cc2)c(OC)c1 [Example G45]	16%	16%	–	–	89%	–	–	–

Further lines, with some results ahead:

CDK4 % Inhibition at 0.03 μM (human CDK4/cyclin D3; at 0.03 μM)	CDK2 % Inhibition at 0.03 μM (CDK2/cyclin A; at 0.03 μM)	CDK4 % Inhibition at 0.03 μM (human CDK4/cyclin D3; 0.03 μM compound)	CDK2 % Inhibition at 0.03 μM (CDK2/cyclin A; 0.03 μM compound)	SMILES	HCT-116 % Inhibition at 0.25 μM (HCT-116 cell line; HCT-116, at 0.25 μM)	HCT-116 % Inhibition at 0.1 μM (HCT-116 cell line; HCT-116 cells, 0.1 μM compound)	HCT-116 % Inhibition at 0.25 μM (HCT-116 cell line; [1])	further results
–	–	7%	−14%	N#CCCNc1ccccc1NC(=O)c1ccc(Nc2nc(N)c(C(=O)c3c(F)cccc3F)s2)cc1 [Example G323]	–	14%	72%	–
–	–	5%	−23%	Cc1cccc(N2CCN(C(=O)c3ccc(Nc4nc(N)c(C(=O)c5c(F)cccc5F)s4)cc3)CC2C)c1 (stereo not drawn) [Example G308]	–	5%	60%	–
–	–	22%	18%	Nc1nc(Nc2ccc(C(=O)NC3CCOC3=O)cc2)sc1C(=O)c1c(F)cccc1F (stereo not drawn) [Example G199]	–	12%	52%	–
–	–	17%	22%	CN(CCC(O)c1ccccc1)C(=O)c1ccc(Nc2nc(N)c(C(=O)c3c(F)cccc3F)s2)cc1 (stereo not drawn) [Example G370]	–	19%	52%	–
–	–	41%	36%	CN(CC(O)c1ccccc1)C(=O)c1ccc(Nc2nc(N)c(C(=O)c3c(F)cccc3F)s2)cc1 (stereo not drawn) [Example G225]	–	0%	51%	–
–	–	20%	28%	COc1ccc(CNC(=O)c2ccc(Nc3nc(N)c(C(=O)c4c(F)cccc4F)s3)cc2)c(OC)c1 [Example G254]	–	35%	75%	–
–	–	3%	9%	COC(=O)c1ccc(NC(=O)c2ccc(Nc3nc(N)c(C(=O)c4c(F)cccc4F)s3)cc2)c(C)c1 [Example G354]	–	31%	60%	–
6%	−2%	–	–	C=C(C)CN(C)C(=O)c1ccc(Nc2nc(N)c(C(=O)c3c(F)cccc3F)s2)cc1 [Example G182]	52%	–	–	HCT-116 % Inhibition at 0.1 μM (HCT-116 cell line; HCT-116, at 0.1 μM): 23%
–	–	27%	11%	COc1ccc(N2CCN(C(=O)c3ccc(Nc4nc(N)c(C(=O)c5c(F)cccc5F)s4)cc3)CC2)cc1 [Example G240]	–	15%	52%	–
–	–	−7%	1%	Nc1nc(Nc2ccc(C(=O)NCC(O)c3ccccc3)cc2)sc1C(=O)c1c(F)cccc1F (stereo not drawn) [Example G391]	–	11%	50%	–
16%	4%	–	–	C#CCCN(CCCC)C(=O)c1ccc(Nc2nc(N)c(C(=O)c3c(F)cccc3F)s2)cc1 [Example G171]	47%	–	–	HCT-116 % Inhibition at 0.1 μM (HCT-116 cell line; HCT-116, at 0.1 μM): 30%
–	–	11%	7%	Nc1nc(Nc2ccc(C(=O)NCCC3=CCCCC3)cc2)sc1C(=O)c1c(F)cccc1F [Example G337]	–	13%	52%	–
36%	34%	–	–	Nc1nc(Nc2ccc(C(=O)N[C@H]3CCc4ccccc43)cc2)sc1C(=O)c1c(F)cccc1F [Example G184]	58%	–	–	HCT-116 % Inhibition at 0.1 μM (HCT-116 cell line; HCT-116, at 0.1 μM): 17%
–	–	21%	10%	CCCN(CCO)C(=O)c1ccc(Nc2nc(N)c(C(=O)c3c(F)cccc3F)s2)cc1 [Example G233]	–	16%	48%	–
–	–	10%	6%	CCCc1ccc(NC(=O)c2ccc(Nc3nc(N)c(C(=O)c4c(F)cccc4F)s3)cc2)cc1 [Example G204]	–	19%	49%	–
–	–	11%	−2%	N#CCCN(Cc1cccnc1)C(=O)c1ccc(Nc2nc(N)c(C(=O)c3c(F)cccc3F)s2)cc1 [Example G316]	–	1%	56%	–
